These results are taken from PubChem BioAssay (NCI).

Among the test systems are EKVX NSCLC; HOP-92 NSCLC; HT29 colon; IGROV1 ovarian; KM12 colon; NCI-H23 lung; NCI-H522 lung; OVCAR-4 ovarian; OVCAR-8 ovarian; SK-OV-3 ovarian.
What all share (assay): NCI-60 cell line screen, 48 h

Several values for one entry are separate records, joined by “and”; a condition that tells them apart may be missing. Equal values may be shown once.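 Protocol summary: plate cells (96-well), add compound at 5 concentrations, incubate 48 h, interpolate endpoints linearly. GI50 marks 50% less growth. At the TGI there is no net growth.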

With `Cc1cnc2n(c1=O)Cc1ccccc1CO2`, the GI50 in the assay with EKVX NSCLC was 20.8 µM; with HOP-92 NSCLC, 19.3 µM; in the assay on HT29 colon it was 26.3 µM; with IGROV1 ovarian, 14.4 µM; with KM12 colon, 18 µM; with NCI-H23 lung, 21.1 µM. The GI50 is 3.8 µM in the assay on NCI-H522 lung, 22 µM in the assay on OVCAR-4 ovarian, 23.4 µM in the assay on OVCAR-8 ovarian and 41 µM in the assay with SK-OV-3 ovarian. Moreover, the TGI turned out to be 45.1 µM in the assay with EKVX NSCLC; 44.3 µM in the assay on HOP-92 NSCLC; 96.9 µM with HT29 colon; 32.5 µM in the assay with IGROV1 ovarian; 34.3 µM in the assay on KM12 colon; 60.5 µM in the assay on NCI-H23 lung. In addition, the TGI in the assay with NCI-H522 lung is 18.8 µM; in the assay on OVCAR-4 ovarian, 64.1 µM; with OVCAR-8 ovarian, 82.5 µM; in the assay with SK-OV-3 ovarian, over 100 µM.

For the compound `O=C1OC(=O)C2C1C1(c3ccccc3)OC2(c2ccccc2)c2c(Br)c(Br)c(Br)c(Br)c21` (stereo not drawn), the TGI with EKVX NSCLC, with HOP-92 NSCLC, in the assay on HT29 colon, in the assay on IGROV1 ovarian, in the assay with KM12 colon and with NCI-H23 lung was over 100 µM each time. Also, the TGI was over 100 µM in the assay on NCI-H522 lung, over 100 µM in the assay on OVCAR-4 ovarian, over 100 µM with OVCAR-8 ovarian and 74.9 µM with SK-OV-3 ovarian.

On to `COc1cc(-c2cc(C(=O)N3CCN(C(=O)c4ccccc4NCc4cccs4)CC3)nc3cc(-c4ccccc4)nn23)cc(OC)c1OC`, for which the GI50 is 53.9 µM in the assay on EKVX NSCLC; 2.41 µM in the assay on HOP-92 NSCLC; 3.78 µM in the assay with HT29 colon; 13.9 µM with IGROV1 ovarian; 3.16 µM with KM12 colon; 15.7 µM in the assay on NCI-H23 lung. Besides, the GI50 with NCI-H522 lung is 1.67 µM; with OVCAR-4 ovarian, 5.55 µM; with OVCAR-8 ovarian, 30.3 µM; with SK-OV-3 ovarian, 5.5 µM. Further, the TGI was over 100 µM with EKVX NSCLC; 9.22 µM in the assay on HOP-92 NSCLC; 15 µM with HT29 colon; over 100 µM in the assay with IGROV1 ovarian; over 100 µM in the assay with KM12 colon; over 100 µM with NCI-H23 lung. Moreover, the TGI in the assay with NCI-H522 lung was 4.68 µM; with OVCAR-4 ovarian, over 100 µM; in the assay on OVCAR-8 ovarian it was over 100 µM; in the assay on SK-OV-3 ovarian, over 100 µM.

As for `O=c1c(-c2nc3ccccc3[nH]2)cc2ccccc2n1Cc1cn(Cc2ccc(F)cc2)nn1`, the GI50 in the assay with EKVX NSCLC is 0.799 µM; with HOP-92 NSCLC, 0.364 µM; with HT29 colon, 0.041 µM; in the assay on IGROV1 ovarian, 0.221 µM; in the assay with KM12 colon, 0.143 µM; with NCI-H23 lung, 0.457 µM. Also, the GI50 in the assay with NCI-H522 lung is 0.0957 µM; in the assay on OVCAR-4 ovarian, 1.35 µM; with OVCAR-8 ovarian it was 0.139 µM; with SK-OV-3 ovarian, 0.328 µM. Moreover, the TGI is over 100 µM with EKVX NSCLC; 18.2 µM in the assay with HOP-92 NSCLC; 96.9 µM in the assay on HT29 colon; over 100 µM with IGROV1 ovarian; over 41.5 µM with KM12 colon; 19 µM with NCI-H23 lung. In addition, the TGI with OVCAR-4 ovarian was over 100 µM; with OVCAR-8 ovarian it was over 100 µM; with SK-OV-3 ovarian, 4.63 µM.

As to `CC(=O)NC1C(OCc2ccccc2)OC(COC(=O)CCCCCCCCCCNC(=O)CCNc2ccc([N+](=O)[O-])c3[nH]c4ccc(O)cc4c(=O)c23)C(O)C1OC(C)C(=O)N[C@H](C(=O)N[C@H](CCC(=O)O)C(N)=O)C(C)C` (stereo partly drawn), the TGI was over 100 µM in the assay with EKVX NSCLC; 88.4 µM in the assay with HOP-92 NSCLC; over 100 µM in the assay on HT29 colon; over 100 µM with IGROV1 ovarian; over 100 µM in the assay with KM12 colon; over 100 µM in the assay with NCI-H23 lung. For the same compound, the TGI was 40.4 µM in the assay with NCI-H522 lung, over 100 µM in the assay with OVCAR-4 ovarian, over 100 µM in the assay on OVCAR-8 ovarian and over 100 µM with SK-OV-3 ovarian.

On to `Nc1nc(N)c(N=Nc2ccc([As](=O)(O)O)c(O)c2)c(N)n1`, for which the TGI in the assay on EKVX NSCLC, in the assay with HOP-92 NSCLC, in the assay with HT29 colon, in the assay on IGROV1 ovarian, with KM12 colon and in the assay on NCI-H23 lung was over 100 µM each time. In addition, the TGI with NCI-H522 lung was over 31 µM; in the assay on OVCAR-4 ovarian, over 100 µM; with OVCAR-8 ovarian, over 100 µM; with SK-OV-3 ovarian it was over 100 µM.

For the compound `CN(CC(=O)O)Cc1c[nH]c2ccccc12`, the TGI in the assay with EKVX NSCLC, with HOP-92 NSCLC, in the assay with HT29 colon, in the assay with IGROV1 ovarian, in the assay on KM12 colon and in the assay on NCI-H23 lung was over 100 µM each time. Moreover, the TGI in the assay on NCI-H522 lung, in the assay on OVCAR-4 ovarian, in the assay with OVCAR-8 ovarian and in the assay with SK-OV-3 ovarian was over 100 µM each time.

As to `COc1ccc(S(=O)(=O)Nc2c(/C=C\c3cc(OC)c(OC)c(OC)c3)ccc(OC)c2O)cc1OC`, the GI50 in the assay with EKVX NSCLC was 0.452 µM; in the assay on HOP-92 NSCLC it was 0.0801 µM; in the assay on HT29 colon, 0.498 µM; in the assay with IGROV1 ovarian, 0.358 µM; with KM12 colon it was 0.091 µM; in the assay with NCI-H23 lung it was 0.318 µM. The GI50 in the assay with NCI-H522 lung was 0.0776 µM; in the assay on OVCAR-4 ovarian, 0.664 µM; with OVCAR-8 ovarian it was 0.416 µM; in the assay with SK-OV-3 ovarian, 1.29 µM. Also, the TGI in the assay on EKVX NSCLC, with HOP-92 NSCLC, in the assay on HT29 colon, in the assay with IGROV1 ovarian, with KM12 colon and in the assay with NCI-H23 lung was over 100 µM throughout. Also, the TGI in the assay with NCI-H522 lung, in the assay on OVCAR-4 ovarian, with OVCAR-8 ovarian and in the assay with SK-OV-3 ovarian was over 100 µM in each case.

As for `CC12CCC(C)(c3cc(O)c(O)cc31)c1cc(O)c(O)cc12`, the TGI in the assay with EKVX NSCLC was 56.3 µM; in the assay with HOP-92 NSCLC, 25.4 µM; in the assay on HT29 colon, 33.2 µM; in the assay on IGROV1 ovarian, 40.4 µM; in the assay with KM12 colon, 32.7 µM; in the assay on NCI-H23 lung, 75.5 µM. The TGI with NCI-H522 lung amounted to 6.38 µM; in the assay with OVCAR-4 ovarian, 28.7 µM; in the assay with OVCAR-8 ovarian it was 57.9 µM; in the assay on SK-OV-3 ovarian, 36.7 µM.

Regarding `CCCCCCCCCCCCCCCc1nc(SCC(=O)O)n[nH]1`, the TGI is over 100 µM in the assay with EKVX NSCLC; 65 µM in the assay on HOP-92 NSCLC; over 100 µM with HT29 colon; over 100 µM in the assay on IGROV1 ovarian; over 100 µM in the assay with KM12 colon; over 100 µM in the assay with NCI-H23 lung. The TGI with NCI-H522 lung, in the assay on OVCAR-4 ovarian, in the assay on OVCAR-8 ovarian and with SK-OV-3 ovarian was over 100 µM throughout.

Regarding `COc1ccc(/C=N/C2=C(C#N)C(c3ccccc3)c3ccc4ccccc4c3O2)cc1` (stereo not drawn), the TGI in the assay with EKVX NSCLC was over 100 µM; in the assay on HOP-92 NSCLC, over 44 µM; in the assay with HT29 colon it was over 100 µM; with IGROV1 ovarian, over 100 µM; with KM12 colon, over 100 µM; with NCI-H23 lung it was over 100 µM. Besides, the TGI with NCI-H522 lung is 5.5 µM; with OVCAR-4 ovarian, over 100 µM; with OVCAR-8 ovarian, over 100 µM; in the assay on SK-OV-3 ovarian, over 100 µM. The GI50 in the assay on HOP-92 NSCLC was 0.439 µM; in the assay with HT29 colon, 0.53 µM; with IGROV1 ovarian, 0.403 µM; in the assay with KM12 colon, 0.397 µM; in the assay with NCI-H23 lung, 0.469 µM; in the assay on NCI-H522 lung, 0.128 µM. For the same compound, the GI50 in the assay with OVCAR-4 ovarian was 0.645 µM; in the assay on OVCAR-8 ovarian it was 0.486 µM; with SK-OV-3 ovarian, 0.539 µM.

For the compound `CCN(CC)[C@@H]1c2cc3c(cc2C(c2cc(OC)c(O)c(OC)c2)C2C(=O)CO[C@@H]21)OCO3` (stereo partly drawn), the TGI in the assay on EKVX NSCLC, in the assay with HOP-92 NSCLC, with HT29 colon, in the assay on IGROV1 ovarian, in the assay on KM12 colon and in the assay with NCI-H23 lung was over 100 µM throughout. Moreover, the TGI with NCI-H522 lung, with OVCAR-4 ovarian, with OVCAR-8 ovarian and with SK-OV-3 ovarian was over 100 µM in each case.

`N[C@@H](Cc1ccc(N(CCCl)CCCl)cc1)C(=O)O`: the GI50 in the assay with EKVX NSCLC is 51.3 µM and 37.5 µM and 52 µM; in the assay with HOP-92 NSCLC, 11.9 µM and 15 µM; with HT29 colon, 54.2 µM and 42.3 µM; in the assay with IGROV1 ovarian it was 15.2 µM and 20.3 µM and 48.6 µM; in the assay with KM12 colon, 83.9 µM and 42.7 µM; in the assay with NCI-H23 lung, 20.6 µM and 12.5 µM. Further, the GI50 is 14.4 µM with NCI-H522 lung; 32.1 µM and 18.6 µM with OVCAR-4 ovarian; 27.7 µM and 19.7 µM with OVCAR-8 ovarian; 19.3 µM and 13.9 µM with SK-OV-3 ovarian. The TGI in the assay with EKVX NSCLC is > 100 µM and 58.3 µM and 128 µM; in the assay on HOP-92 NSCLC, 52.3 µM and 42 µM and 103 µM; in the assay with HT29 colon, > 100 µM and 235 µM; in the assay on IGROV1 ovarian it was 74.3 µM and 57.1 µM and 139 µM; in the assay with KM12 colon, > 100 µM and > 83.7 µM and 168 µM; with NCI-H23 lung, > 100 µM and 45.5 µM and 84.7 µM. Further, the TGI in the assay on NCI-H522 lung is 29.5 µM and 66.8 µM; with OVCAR-4 ovarian, > 100 µM and 48.2 µM and 84.3 µM; with OVCAR-8 ovarian it was > 100 µM and 50.9 µM and 110 µM; in the assay on SK-OV-3 ovarian it was > 100 µM and 35.6 µM and 85.9 µM.

For the compound `COC(=O)/C=C/c1cc(OC)c2c(c1)[C@@H](C(=O)OC)[C@H](c1ccc(OC)c(OC)c1)O2`, the GI50 in the assay on EKVX NSCLC is 4.62 µM; in the assay on HOP-92 NSCLC it was 13.1 µM; in the assay with HT29 colon, 0.505 µM; with IGROV1 ovarian, 3.84 µM; with KM12 colon, 0.703 µM; in the assay with NCI-H23 lung it was 3.57 µM. Further, the GI50 in the assay on NCI-H522 lung is 1.44 µM; in the assay with OVCAR-4 ovarian, 4.76 µM; with OVCAR-8 ovarian it was 4.53 µM; in the assay with SK-OV-3 ovarian it was 6.13 µM. Further, the TGI in the assay on EKVX NSCLC, in the assay on HOP-92 NSCLC, with HT29 colon, in the assay with IGROV1 ovarian, in the assay on KM12 colon and in the assay with NCI-H23 lung was over 100 µM throughout. Further, the TGI with NCI-H522 lung, in the assay with OVCAR-4 ovarian, with OVCAR-8 ovarian and with SK-OV-3 ovarian was over 100 µM throughout.
